Measurements published in patent US20090143279A1 (priority 2007, published 2009).
Like-named read-outs stand apart in the source and are kept apart here.

Experiments:
[1] = tested on: OXPHOS gene expression; type: cell-based, mouse
[2] = tested on: reactive oxygen species; type: cell-based, mouse
[3] = tested on: cytochrome c; type: cell-based, mouse
[4] = tested on: nuOXPHOS transcripts; type: cell-based, mouse
[5] = tested on: C2C12 myotubes
[6] = tested on: mtOXPHOS transcripts; type: cell-based, mouse
[7] = tested on: cellular dehydrogenase activity
[8] = tested on: mitochondrial membrane potential; type: cell-based, mouse
[9] = 14.26 μM, composite Z-score vs DMSO
[10] = 20 μM, composite Z-score vs DMSO
[11] = normalized composite Z-score vs mock-treated (DMSO) wells, Conc 20 μM
[12] = composite Z-score vs DMSO wells, Conc 20 μM
[13] = Conc 20 μM, normalized score vs mock-treated (DMSO) wells
[14] = composite Z-score vs DMSO, Conc 20 μM

Structure (SMILES): CCN(CC)CCNC(=O)COc1ccc(OC)cc1 [mefexamide]
- GE-HTS [1, 9]: −0.340
- GE-HTS [1, 10]: −0.215
- ROS [2, 9]: 1.172
- ROS [2, 10]: 0.837
- cyt c [3, 9]: 0.129
- cyt c [3, 10]: −0.257
- nucOX [4, 9]: −0.498
- nucOX [4, 10]: −0.253
- Viability [5, 9]: −0.541
- Viability [5, 10]: −2.120
- mitoOX [6, 9]: 0.009
- mitoOX [6, 10]: −0.101
- MTT [7, 9]: −1.363
- MTT [7, 10]: −1.270
- ΔΨm [8, 9]: −0.719
- ΔΨm [8, 10]: −0.643

Structure (SMILES): OC(c1cc(C(F)(F)F)nc2c(C(F)(F)F)cccc12)C1CCCCN1 (stereo not shown) [mefloquine]
- GE-HTS [1]: −0.036
- GE-HTS [1, 10]: 0.362
- ROS [2]: −0.069
- ROS [2, 10]: −0.983
- cyt c [3]: 0.498
- cyt c [3, 10]: −1.496
- nucOX [4]: −0.073
- nucOX [4, 10]: 0.552
- Viability [5]: −0.183
- Viability [5, 10]: 1.135
- mitoOX [6]: 0.007
- mitoOX [6, 10]: −0.093
- MTT [7]: −1.368
- MTT [7, 10]: 0.374
- ΔΨm [8]: −0.537
- ΔΨm [8, 10]: −0.505

Structure (SMILES): OC[C@H]1O[C@@](CO)(O[C@H]2O[C@H](CO)[C@@H](O)[C@H](O)[C@H]2O)[C@@H](O[C@H]2O[C@H](CO)[C@@H](O)[C@H](O)[C@H]2O)[C@@H]1O [melezitose]
- GE-HTS [1, 11]: −0.502
- ROS [2, 11]: −0.125
- cyt c [3, 11]: 0.284
- nucOX [4, 11]: 0.054
- Viability [5, 11]: −0.843
- mitoOX [6, 11]: −1.553
- MTT [7, 11]: −0.968
- ΔΨm [8, 11]: −0.605

Structure (SMILES): N[C@@H](Cc1ccc(N(CCCl)CCCl)cc1)C(=O)O [melphalan]
- GE-HTS [1, 12]: 1.449
- ROS [2, 12]: −0.265
- cyt c [3, 12]: −0.954
- nucOX [4, 12]: 1.282
- Viability [5, 12]: −0.360
- mitoOX [6, 12]: 1.453
- MTT [7, 12]: −1.387
- ΔΨm [8, 12]: 0.151

Structure (SMILES): CC1CCC(C(C)C)C(OC(=O)c2ccccc2)C1 (stereo not shown) [menthyl benzoate]
- GE-HTS (composite Z-score) [1, 13]: −0.115
- ROS (composite Z-score) [2, 13]: 1.375
- cyt c (composite Z-score) [3, 13]: −0.724
- nucOX (composite Z-score) [4, 13]: 0.047
- Viability (composite Z-score) [5, 13]: −0.151
- mitoOX (composite Z-score) [6, 13]: −0.336
- MTT (composite Z-score) [7, 13]: −1.026
- ΔΨm (composite Z-score) [8, 13]: 0.016

Structure (SMILES): C[N+]1(C)CCCC(OC(=O)C(O)(c2ccccc2)c2ccccc2)C1 (stereo not shown) [mepenzolate]
- GE-HTS [1, 12]: −0.025
- ROS [2, 12]: 0.368
- cyt c [3]: 0.666
- cyt c [3, 12]: 0.855
- nucOX [4, 12]: 0.062
- Viability [5, 12]: 0.333
- mitoOX [6, 12]: −0.129
- MTT [7, 12]: −0.894
- ΔΨm [8, 12]: 1.198

Structure (SMILES): NCCS [mercaptamine]
- GE-HTS [1]: −1.175
- ROS [2]: −0.661
- cyt c [3]: 0.320
- nucOX [4]: −0.980
- Viability [5]: −0.271
- mitoOX [6]: −1.294
- MTT [7]: −0.085
- ΔΨm [8]: −0.724

Structure (SMILES): CC1=C2C(O)C(=O)OC3CC4C(C)(C)C(=O)C=C[C@]4(C)C(CC1)[C@]23C (stereo partly shown) [merogedunin]
- GE-HTS [1, 11]: −0.254
- ROS [2, 11]: 0.741
- cyt c [3, 11]: 0.490
- nucOX [4, 11]: −0.160
- Viability [5, 11]: −0.222
- mitoOX [6, 11]: −0.350
- MTT [7, 11]: −0.645
- ΔΨm [8, 11]: −0.214

Structure (SMILES): CC(C)NCC(O)c1cc(O)cc(O)c1 (stereo not shown) [metaproterenol]
- GE-HTS [1, 12]: 0.086
- ROS [2, 12]: 2.154
- cyt c [3]: 0.339
- cyt c [3, 12]: 0.212
- nucOX [4, 12]: 0.138
- Viability [5, 12]: 0.206
- mitoOX [6, 12]: −0.094
- MTT [7, 12]: −0.832
- ΔΨm [8, 12]: −1.005

Structure (SMILES): C[C@H](N)[C@H](O)c1cccc(O)c1 [metaraminol]
- GE-HTS [1, 14]: −0.589
- ROS [2, 14]: 0.313
- cyt c [3, 14]: 0.327
- nucOX [4, 14]: −0.456
- Viability [5, 14]: 0.107
- mitoOX [6, 14]: −0.745
- MTT [7, 14]: −1.268
- ΔΨm [8, 14]: −0.772

Structure (SMILES): C=C1c2cccc(O)c2C(=O)C2=C(O)[C@]3(O)C(=O)C(C(N)=O)=C(O)[C@@H](N(C)C)[C@@H]3[C@@H](O)[C@H]12 [methacycline, reference compound]
- GE-HTS [1, 12]: −0.340
- ROS [2, 12]: 1.083
- cyt c [3]: 0.020
- cyt c [3, 12]: 0.723
- nucOX [4, 12]: −0.600
- Viability [5, 12]: −1.645
- mitoOX [6, 12]: 0.258
- MTT [7, 12]: −1.744
- ΔΨm [8, 12]: −1.616

Structure (SMILES): CNC(=O)ON=C(C)SC [methomyl]
- GE-HTS [1, 14]: −0.703
- ROS [2, 14]: 0.231
- cyt c [3, 14]: −0.007
- nucOX [4, 14]: −0.805
- Viability [5, 14]: 1.361
- mitoOX [6, 14]: −0.317
- MTT [7, 14]: −1.481
- ΔΨm [8, 14]: −0.493
